Patent EP0113508A1, “Hydrophobic platinum compounds and their preparation” (Inco Research & Development Center, Inc., priority 1982, dated 1984)

Legend:
L1210 leukemic cells = test: Chemotherapy of mice injected intravenously with L1210 leukemic cells; increase in life span (ILS) versus controls; assay type: in vivo; settings: preliminary
Excerpt: To deliver the water insoluble cis Pt (II) analogues for chemotheraphy, they were encapsulated in sonicated phosphatidylcholine (PC) vesicles. To prepare these PC vesicles, both the cis Pt (II) analogue and PC had to be lyophilized from cyclohexane or benzene to give a dry powder for hydration by an aqueous medium. Simply drying down an organic solution of both the cis Pt (II) analogue and the PC gave unsatisfactory results upon hydration. The lyophilized samples were hydrated with physiological saline and then sonicated at 4°C using a W-375 Branson sonicator, under a nitrogen atmosphere. The sonicated samples were spun at 12,000 x G for 5 minutes to remove any titanium fragments from the sonicator probe and any undispersed lipid. […] Therefore all preparations were passed down a G-50 gel permeation column to separate any free cis Pt (II) from the hydrophobic cis Pt (II) analogue encapsulated in egg PC vesicles had better structural integrity and more uniform size distribution than the same analogues in soy PC vesicles. […] That is, the vesicles containing the cis Pt (II) analogues that had the lowest amounts of free phosphatidic acid, had the best structural stability and smaller size ranges. This is in direct contrast to the effect of phosphatidic acid in PC vesicles in the absence of the cis Pt (II) analogues.
The fractions from the G-50 column containing the encapsulated cis Pt (II) analogues were concentrated by ultrafiltration to the desired concentration for chemotheraphy studies.
Various compounds synthesized and incorporated in liposomal vesicles in the foregoing manner were employed in the chemotherapy of mice. The testing consisted of injections of 10 5 L1210 leukemic cells intravenuously into mice. One day later, a single -intravenous dose of the cis Pt (II) analogue in a sonicated PC vesicle was given. Increase in life span (ILS) was then measured relative to control animals who received only saline or PC vesicles alone as intravenous injections. Data are shown in Table I, together with data on some tests in which samples were not passed through a gel permeation column to remove free cis Pt (II), but an injectable preparation was made by the addition of "Tween" 80.

[1] = Toxicity (LD10) of the cis Pt (II) analogues in PC vesicles; assay type: in vivo, mice; settings: passed through G-50 column, preliminary
[2] = Soy PC vesicle, passed through G-50 column, single intravenous dose one day after L1210 cells i.v.
[3] = Soy PC vesicle, passed through G-50 column, single intravenous dose
[4] = Egg PC vesicle, passed through G-50 column, single intravenous dose one day after L1210 cells i.v.
[5] = Egg PC vesicle, passed through G-50 column, single intravenous dose

Row | Substance | % ILS at Optimal Dose (L1210 leukemic cells; [2]) [%] | Optimal Dose (L1210 leukemic cells; [3]) [mg Pt/kg] | LD10 ([1]; Soy PC vesicle) [mg Pt/kg] | % ILS at Optimal Dose (L1210 leukemic cells; [4]) [%] | Optimal Dose (L1210 leukemic cells; [5]) [mg Pt/kg] | LD10 ([1]; Egg PC vesicle) [mg Pt/kg] | % ILS at Optimal Dose (L1210 leukemic cells; Soy PC vesicle, samples not treated by G-50 column and Tween-80 added, single intravenous dose) [%]
1 | Soy Phosphatidic Acid Bis Cyclopentylamine Cis Pt (II) | 16 | 125 | 125 |  |  |  | 
2 | Egg Phosphaditic Acid 1,2 Diaminocyclohexane Cis Pt (II) [Egg phosphatidic acid DAC] |  |  |  | 50 | 26 | >58 | 
3 | Soy Phosphatidic Acid Bis Isoamylamine Cis Pt (II) | 8 | 155 | 345 |  |  |  | 
4 | Dioleyl Phosphaditic Acid 1,2 Diaminocyclohexane Cis Pt (II) [Dioleyl phosphatidic acid DAC] |  |  |  | 83 | 39 | 58 | 0
5 | Soy Phosphaditic Acid Bis Cyclohexylamine Cis Pt (II) | 16 | 155 | 500 |  |  |  | 
6 | Dipalmitoyl Phosphatidic Acid 1,2 Diaminocyclohexane Cis Pt (II) [Dipalmitoyl phosphatidic acid DAC] |  |  |  | 100 | 39 | 58 | 
